# US20060069132A1, “Azolecarboxamide herbicides” (priority 2004, published 2006)
# Read-outs that look alike come from different tables or passages of the source.
# Experiments:
# [1] = tested on: barnyardgrass; experiment: Test B pre-/postemergence herbicide test; type: in vivo, Echinochloa crus-galli; details: for pest or weed control at 500 g/ha: 500 g ai/ha
# Outline: (§1)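 Flooded paddy rice and barnyardgrass were treated at the 2-leaf stage; upland plantings received compound either on sown seed or on 1- to 4-leaf seedlings. All were kept 13–15 days in a greenhouse and scored visually, 0–100, relative to untreated plants.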
# [2] = tested on: Surinam grass; experiment: Test B pre-/postemergence herbicide test; type: in vivo, Urochloa decumbens; details: for pest or weed control at 500 g/ha: 500 g ai/ha
# Outline: (§2)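 Formulation: non-phytotoxic solvent mix with surfactant. Timing: preemergence on seed and postemergence on 2–18 cm plants, applied concurrently. Readout after 13–15 d greenhouse: visual 0–100 control rating against controls.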
# [3] = tested on: cocklebur; experiment: Test B pre-/postemergence herbicide test; type: in vivo, Xanthium strumarium; details: for pest or weed control at 500 g/ha: 500 g ai/ha
# Outline: as §1
# [4] = tested on: corn; experiment: Test B pre-/postemergence herbicide test; type: in vivo, Zea mays
# Outline: as §2
# [5] = tested on: large crabgrass; experiment: Test B pre-/postemergence herbicide test; type: in vivo, Digitaria sanguinalis; details: for pest or weed control at 500 g/ha: 500 g ai/ha
# Outline: as §2
# [6] = tested on: giant foxtail; experiment: Test B pre-/postemergence herbicide test; type: in vivo, Setaria faberi; details: for pest or weed control at 125 g/ha / pest or weed control at 500 g/ha: Setaria faberi, 336 h; for pest or weed control at 125 g/ha: 125 g ai/ha; for pest or weed control at 500 g/ha: 500 g ai/ha
# Outline: as §2
# [7] = tested on: lambsquarters; experiment: Test B pre-/postemergence herbicide test; type: in vivo, Chenopodium album; details: for pest or weed control at 125 g/ha / pest or weed control at 500 g/ha: Chenopodium album, 336 h; for pest or weed control at 125 g/ha: 125 g ai/ha; for pest or weed control at 500 g/ha: 500 g ai/ha
# Outline: as §2
# [8] = tested on: pigweed; experiment: Test B pre-/postemergence herbicide test; type: in vivo, Amaranthus retroflexus; details: for pest or weed control at 500 g/ha: 500 g ai/ha
# Outline: as §2
# [9] = tested on: velvetleaf; experiment: Test B pre-/postemergence herbicide test; type: in vivo, Abutilon theophrasti; details: for pest or weed control at 500 g/ha: 500 g ai/ha
# Outline: as §2
# [10] = tested on: blackgrass; experiment: Test B postemergence herbicide test; type: in vivo, Alopecurus myosuroides
# Outline: (§3)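 After treating 2-leaf paddy plants or 2–18 cm postemergence plants (1 to 4 leaves) with formulated chemical, researchers kept them in a greenhouse for 13–15 days. Effects were judged visually versus controls: 0 indicates none, 100 total control.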
# [11] = tested on: wheat; experiment: Test B postemergence herbicide test; type: in vivo, Triticum aestivum; design: key to Wheat plant response rating: 0 = no effect, 100 = complete control
# Outline: (§4)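 Visual ratings, 0 (no effect) to 100 (complete control), made versus controls after 13–15 d greenhouse. Paddy plants treated at 2-leaf stage; postemergence plants at 1- to 4-leaf stage, 2–18 cm tall.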
# [12] = tested on: wild oat; experiment: Test B postemergence herbicide test; type: in vivo, Avena fatua
# Outline: as §4
# [13] = tested on: rice; experiment: Test B flooded paddy test; type: in vivo, Oryza sativa; details: 1000 g ai/ha, visual rating, scale 0 to 100 (0 no effect, 100 complete control), 13 to 15 days
# Outline: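 Scale 0–100: zero equals no visible effect, 100 complete control, judged by eye relative to controls. Timing: 13 to 15 days in greenhouse post-treatment. Growth stage at spraying: two leaves (paddy) or one to four leaves, 2–18 cm (postemergence).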
# [14] = tested on: small flower umbrella sedge; experiment: Test B flooded paddy test; type: in vivo, Cyperus difformis; details: 1000 g ai/ha, visual rating, scale 0 to 100 (0 no effect, 100 complete control), 13 to 15 days
# Outline: as §3
# [15] = tested on: ducksalad; experiment: Test B flooded paddy test; type: in vivo, Heteranthera limosa; details: 1000 g ai/ha, visual rating, scale 0 to 100 (0 no effect, 100 complete control), 13 to 15 days
# Outline: as §3
# [16] = Postemergence, 500 g ai/ha, visual rating after 13 to 15 days, scale 0 (no effect) to 100 (complete control)
# [17] = Postemergence, 250 g ai/ha, scale 0 (no effect) to 100 (complete control)
# [18] = postemergence, 62 g ai/ha, scale 0 to 100
smiles,measurement,setting,value
"CCn1nc(C(C)(C)C)cc1C(=O)Nc1cccc(C(=O)NCC(F)(F)F)c1 [Compound 43, 3-(1,1-dimethylethyl)-1-ethyl-N-[3-[[(2,2,2-trifluoroethyl)amino]carbonyl]-phenyl]-1H-pyrazole-5-carboxamide]",pest or weed control at 125 g/ha,"[1]; Echinochloa crus-galli, post-emergence, Postemergence, 125 g ai/ha, scale 0 (no effect) to 100 (complete control), read-out: Barnyardgrass plant response rating",20%
same,pest or weed control at 500 g/ha,"[1]; Echinochloa crus-galli, post-emergence, Postemergence, visual rating after 13 to 15 days, scale 0 (no effect) to 100 (complete control), read-out: Plant response rating, Barnyardgrass",70%
same,pest or weed control at 500 g/ha,"[1]; Echinochloa crus-galli, pre-emergence, Preemergence, scale 0 to 100, read-out: Barnyardgrass plant response rating",100%
same,pest or weed control at 500 g/ha,"[2]; Urochloa decumbens, post-emergence, Postemergence, visual rating after 13 to 15 days, scale 0 (no effect) to 100 (complete control), read-out: Plant response rating, Surinam Grass",80%
same,pest or weed control at 500 g/ha,"[2]; Urochloa decumbens, pre-emergence, Preemergence, scale 0 to 100, read-out: Surinam Grass plant response rating",50%
same,pest or weed control at 125 g/ha,"[2]; Urochloa decumbens, pre-emergence, preemergence, 125 g ai/ha, 0 to 100 scale, 0 is no effect, 100 is complete control, read-out: Plant response rating, Surinam Grass",30%
same,pest or weed control at 125 g/ha,"[3]; Xanthium strumarium, post-emergence, Postemergence, 125 g ai/ha, scale 0 (no effect) to 100 (complete control), read-out: Cocklebur plant response rating",10%
same,pest or weed control at 500 g/ha,"[3]; Xanthium strumarium, post-emergence, Postemergence, visual rating after 13 to 15 days, scale 0 (no effect) to 100 (complete control), read-out: Plant response rating, Cocklebur",90%
same,pest or weed control at 500 g/ha,"[3]; Xanthium strumarium, pre-emergence, Preemergence, scale 0 to 100, read-out: Cocklebur plant response rating",10%
same,plant injury at 125 g/ha,"[4]; Zea mays, post-emergence, Postemergence, 125 g ai/ha, scale 0 (no effect) to 100 (complete control), read-out: Corn plant response rating",20%
same,"Corn plant response rating (crop injury, 0 = no effect, 100 = complete kill) at 500 g/ha","[4]; Zea mays, post-emergence, Postemergence, 500 g ai/ha, visual rating after 13 to 15 days, scale 0 (no effect) to 100 (complete control)",30%
same,plant injury at 500 g/ha,"[4]; Zea mays, pre-emergence, Preemergence, 500 g ai/ha, scale 0 to 100, read-out: Corn plant response rating",10%
same,pest or weed control at 125 g/ha,"[5]; Digitaria sanguinalis, post-emergence, Postemergence, 125 g ai/ha, scale 0 (no effect) to 100 (complete control), read-out: Crabgrass, Large plant response rating",90%
same,pest or weed control at 500 g/ha,"[5]; Digitaria sanguinalis, post-emergence, Postemergence, visual rating after 13 to 15 days, scale 0 (no effect) to 100 (complete control), read-out: Plant response rating, Crabgrass, Large",90%
same,pest or weed control at 500 g/ha,"[5]; Digitaria sanguinalis, pre-emergence, Preemergence, scale 0 to 100, read-out: Crabgrass, Large plant response rating",100%
same,pest or weed control at 125 g/ha,"[6]; post-emergence, Postemergence, scale 0 (no effect) to 100 (complete control), read-out: Foxtail, Giant plant response rating",30%
same,pest or weed control at 500 g/ha,"[6]; post-emergence, Postemergence, visual rating after 13 to 15 days, scale 0 (no effect) to 100 (complete control), read-out: Plant response rating, Foxtail, Giant",50%
same,pest or weed control at 500 g/ha,"[6]; pre-emergence, Preemergence, scale 0 to 100, read-out: Foxtail, Giant plant response rating",80%
same,pest or weed control at 125 g/ha,"[6]; pre-emergence, preemergence, 0 to 100 scale, 0 is no effect, 100 is complete control, read-out: Plant response rating, Foxtail, Giant",10%
same,pest or weed control at 125 g/ha,"[7]; post-emergence, Postemergence, scale 0 (no effect) to 100 (complete control), read-out: Lambsquarters plant response rating",90%
same,pest or weed control at 500 g/ha,"[7]; post-emergence, Postemergence, visual rating after 13 to 15 days, scale 0 (no effect) to 100 (complete control), read-out: Plant response rating, Lambsquarters",90%
same,pest or weed control at 500 g/ha,"[7]; pre-emergence, Preemergence, scale 0 to 100, read-out: Lambsquarters plant response rating",100%
same,pest or weed control at 125 g/ha,"[7]; pre-emergence, preemergence, 0 to 100 scale, 0 is no effect, 100 is complete control, read-out: Plant response rating, Lambsquarters",90%
same,pest or weed control at 500 g/ha,"[8]; Amaranthus retroflexus, post-emergence, 336 h, Postemergence, visual rating after 13 to 15 days, scale 0 (no effect) to 100 (complete control), read-out: Plant response rating, Pigweed",100%
same,pest or weed control at 500 g/ha,"[8]; Amaranthus retroflexus, pre-emergence, 336 h, Preemergence, scale 0 to 100, read-out: Pigweed plant response rating",100%
same,pest or weed control at 125 g/ha,"[8]; Amaranthus retroflexus, pre-emergence, 336 h, preemergence, 125 g ai/ha, 0 to 100 scale, 0 is no effect, 100 is complete control, read-out: Plant response rating, Pigweed",100%
same,pest or weed control at 500 g/ha,"[9]; Abutilon theophrasti, post-emergence, 336 h, Postemergence, visual rating after 13 to 15 days, scale 0 (no effect) to 100 (complete control), read-out: Plant response rating, Velvetleaf",90%
same,pest or weed control at 500 g/ha,"[9]; Abutilon theophrasti, pre-emergence, 336 h, Preemergence, scale 0 to 100, read-out: Velvetleaf plant response rating",100%
same,pest or weed control at 125 g/ha,"[9]; Abutilon theophrasti, pre-emergence, 336 h, preemergence, 125 g ai/ha, 0 to 100 scale, 0 is no effect, 100 is complete control, read-out: Plant response rating, Velvetleaf",30%
same,pest or weed control at 125 g/ha,"[10]; Alopecurus myosuroides, post-emergence, 336 h, Postemergence, 125 g ai/ha, scale 0 (no effect) to 100 (complete control), read-out: Blackgrass plant response rating",20%
same,"Plant response rating, Blackgrass",[10]; [16],20
same,"Plant response rating, Wheat",[11]; [16],30
same,pest or weed control at 125 g/ha,"[12]; Avena fatua, post-emergence, 336 h, Postemergence, 125 g ai/ha, scale 0 (no effect) to 100 (complete control), read-out: Oat, Wild plant response rating",10%
same,"Plant response rating, Oat, Wild",[12]; [16],30
same,plant injury at 1000 g/ha,"[13]; Oryza sativa, 336 h, read-out: Rice plant response rating",50%
same,pest or weed control at 1000 g/ha,"[14]; Cyperus difformis, 336 h, read-out: Sedge, Umbrella plant response rating",70%
same,pest or weed control at 1000 g/ha,"[15]; Heteranthera limosa, 336 h, read-out: Ducksalad plant response rating",70%
CCNC(=O)c1ccnc(NC(=O)c2cc(C(C)(C)C)nn2CC)c1 [Compound 152],Barnyardgrass plant response rating,[1]; [17],40
same,Barnyardgrass plant response rating,[1]; [18],30
same,Surinam Grass plant response rating,[2]; [17],40
same,Surinam Grass plant response rating,[2]; [18],30
same,Cocklebur plant response rating,[3]; [17],90
same,Cocklebur plant response rating,[3]; [18],60
same,Corn plant response rating,[4]; [17],30
same,Corn plant response rating,[4]; [18],20
same,"Crabgrass, Large plant response rating",[5]; [17],20
same,"Crabgrass, Large plant response rating",[5]; [18],10
same,"Foxtail, Giant plant response rating",[6]; [17],20
same,"Foxtail, Giant plant response rating",[6]; [18],10
same,Lambsquarters plant response rating,[7]; [17],80
same,Lambsquarters plant response rating,[7]; [18],70
same,Pigweed plant response rating,[8]; [17],90
same,Pigweed plant response rating,[8]; [18],50
same,Velvetleaf plant response rating,[9]; [17],50
same,Velvetleaf plant response rating,[9]; [18],50
same,Blackgrass plant response rating,[10]; [17],20
same,Blackgrass plant response rating,[10]; [18],20
same,Wheat plant response rating,"[11]; 250 g ai/ha, scale 0 to 100, 0 no effect, 100 complete control, preemergence",100
same,Wheat plant response rating,[11]; [17],10
same,Wheat plant response rating,[11]; [18],10
same,"Oat, Wild plant response rating",[12]; [17],20
same,"Oat, Wild plant response rating",[12]; [18],10
same,Rice plant response rating,[13],70
same,"Sedge, Umbrella plant response rating",[14],90
same,Ducksalad plant response rating,[15],80
